Our source for the EC50 values is patent US20250034170A1, “SMALL MOLECULE MODULATORS OF GLUCOCEREBROSIDASE ACTIVITY AND USES THEREOF” (Vanqua Bio, Inc., priority 2021, published 2025).

What is called EC50 is the concentration at which the effect is half-maximal.

Each structure is given as a SMILES string.

The target of the test is T1, GCase (Homo sapiens, UniProt P04062).
T1 construct: endogenous in cells; host or cells: HeLa cells
T1 sequence (P04062 40-536): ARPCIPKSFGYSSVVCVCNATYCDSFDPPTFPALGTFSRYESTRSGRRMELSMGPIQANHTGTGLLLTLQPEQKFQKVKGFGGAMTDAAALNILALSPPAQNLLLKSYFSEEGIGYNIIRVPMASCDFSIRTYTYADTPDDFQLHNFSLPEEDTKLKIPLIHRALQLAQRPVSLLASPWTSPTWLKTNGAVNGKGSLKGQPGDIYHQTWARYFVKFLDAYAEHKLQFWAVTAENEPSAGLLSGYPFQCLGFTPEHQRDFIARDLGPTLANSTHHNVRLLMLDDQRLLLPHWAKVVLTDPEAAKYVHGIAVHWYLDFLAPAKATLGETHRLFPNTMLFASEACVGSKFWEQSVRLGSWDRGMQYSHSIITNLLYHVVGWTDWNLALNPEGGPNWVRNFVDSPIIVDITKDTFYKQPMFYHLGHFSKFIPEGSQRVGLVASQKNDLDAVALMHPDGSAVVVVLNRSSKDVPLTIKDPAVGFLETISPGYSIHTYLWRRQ
Briefly: activation of GCase in a live cell PFB assay in HELA cells. Format: cell-based. Particulars: activation of GCase, EC50 ranges. The method, then: Exemplary compounds were evaluated for activation of GCase in a live cell PFB assay in HELA cells (essentially as described in Ysselstein et al., “LRRK2 kinase activity regulates lysosomal glucocerebrosidase in neurons derived from Parkinson's disease patients” Nature Communications (2019) 10:5570). […] EC50 ranges: A: <10 μM; B: >10-50 μM; C: >50-100 μM; D: >100 μM.
`Cc1nn(CC(F)F)c2nc(N3CCC4(CC(=O)N(c5ccnc(C(F)(F)F)c5)C4)C3)ncc12` (stereo not drawn) [Cmpd 496] had an EC50 of 10 to 50 µM. To `O=C1CC2(CCN(c3cnc4cnn(CC(F)F)c4n3)C2)CN1c1ccc(C(F)(F)F)cn1` (stereo not drawn) [Cmpd 497] belongs 50 to 100 µM; to `O=C1CC2(CCN(c3cnc4cnn(CC(F)F)c4n3)C2)CN1c1ccc(C(F)(F)F)nc1` (stereo not drawn) [Cmpd 498], 10 to 50 µM. Regarding `Cc1nc(N2CC3(CCN(c4cnc5cnn(CC(F)(F)F)c5n4)C3)C2)cc(C(F)(F)F)n1` [Cmpd 499], the EC50 is below 10 µM. Consider `Cc1nc(N2CC3(CCN(c4ncc5cnn(CC(F)(F)F)c5n4)C3)C2)cc(C(F)(F)F)n1` [Cmpd 500], for which the EC50 is above 100 µM. As for `Cc1nc(N2CC3(CCN(c4ncc5cnn(CC(F)F)c5n4)C3)C2)cc(C(F)(F)F)n1` [Cmpd 501], the EC50 is above 100 µM.

`Cc1nc(N2CC3(CCN(c4ncc5c(C)nn(CC(F)F)c5n4)C3)C2)cc(C(F)(F)F)n1` [Cmpd 502] showed an EC50 below 10 µM. With `Cc1nc(N2CC3(CCN(c4cnc5c(C)nn(CC(F)F)c5n4)C3)C2)cc(C(F)(F)F)n1` [Cmpd 503], the EC50 was below 10 µM. To `Cc1nc(N2CC3(CCN(c4ncc5c(C)nn(C6COC6)c5n4)C3)C2)cc(C(F)(F)F)n1` [Cmpd 504] belongs 10 to 50 µM.

With `Cc1nc(N2CC3(CCN(c4cncc(-c5nncs5)n4)C3)C2)cc(C(F)(F)F)n1` [Cmpd 505], the EC50 was above 100 µM. With `O=C1CC2(CCN(c3ccnc(C(F)(F)F)c3)C2)CN1c1cnc2cnn(CC(F)F)c2n1` (stereo not drawn) [Cmpd 506] the figure was above 100 µM; with `O=C1CC2(CCN(c3ccc(C(F)(F)F)nc3)C2)CN1c1cnc2cnn(CC(F)F)c2n1` (stereo not drawn) [Cmpd 507], below 10 µM. Consider `O=C1CC2(CCN(c3ccc(C(F)(F)F)cn3)C2)CN1c1cnc2cnn(CC(F)F)c2n1` (stereo not drawn) [Cmpd 508], for which the EC50 was 10 to 50 µM. As to `Cc1nc(N2CCC3(CC(=O)N(c4cnc5cnn(CC(F)F)c5n4)C3)C2)cc(C(F)(F)F)n1` (stereo not drawn) [Cmpd 509], the EC50 was in the range of 10 to 50 µM.

Turning to `Cc1nc(N2CC3(CCN(c4cnc5cnn(CC(F)F)c5n4)C3)CC2=O)cc(C(F)(F)F)n1` (stereo not drawn) [Cmpd 510], the EC50 is above 100 µM.

The molecule `Cc1nc(N2CCC3(CCN(c4cnc5cnn(CC(F)F)c5n4)CC3)C2)cc(C(F)(F)F)n1` [Cmpd 511] came in with an EC50 below 10 µM. To `Cc1nc(N2CCC3(CCN(c4cnc5cnn(CC(F)F)c5n4)CC3)C2=O)cc(C(F)(F)F)n1` [Cmpd 512] belongs below 10 µM. `Cc1nc(N2CC3(CCN(c4cnc5cnn(CC(F)F)c5n4)CC3)CC2=O)cc(C(F)(F)F)n1` [Cmpd 513] registered an EC50 of 10 to 50 µM. `Cc1nn(CC(F)F)c2nc(N3CCC4(CCN(c5ccnc(C(F)(F)F)c5)C4=O)C3)cnc12` (stereo not drawn) [Cmpd 514] yielded an EC50 below 10 µM. To `Cc1nn(CC(F)F)c2nc(N3CCC4(CCN(c5ccnc(C(F)(F)F)c5)C4=O)C3)ncc12` (stereo not drawn) [Cmpd 515] belongs below 10 µM; to `Cc1nc(N2CCC3(CCN(c4cnc5cnn(CC(F)F)c5n4)C3)C2=O)cc(C(F)(F)F)n1` (stereo not drawn) [Cmpd 516], below 10 µM. `O=C1N(c2ccnc(C(F)(F)F)c2)CCC12CCN(c1cnc3cnn(CC(F)F)c3n1)C2` (stereo not drawn) [Cmpd 517] registered an EC50 below 10 µM. Molecule `O=C1N(c2cnc3cnn(CC(F)F)c3n2)CCC12CCN(c1ccnc(C(F)(F)F)c1)C2` (stereo not drawn) [Cmpd 518] came in with an EC50 above 100 µM. For `O=C1N(c2cnc3cnn(CC(F)F)c3n2)CCC12CCN(c1ccc(C(F)(F)F)nc1)C2` (stereo not drawn) [Cmpd 519], the EC50 lay within 10 to 50 µM.

`O=C1N(c2cnc3cnn(CC(F)F)c3n2)CCC12CCN(c1ccc(C(F)(F)F)cn1)C2` (stereo not drawn) [Cmpd 520]: the EC50 lay in the range of 10 to 50 µM.

With `Cc1nc(N2CCC3(CCN(c4cnc5cnn(CC(F)F)c5n4)C3)C2)cc(C(F)(F)F)n1` (stereo not drawn) [Cmpd 521], the EC50 is below 10 µM.

`Cc1nc(N2CC3(CCN(c4cnc5cnn(CC(F)F)c5n4)CC3)C2)cc(C(F)(F)F)n1` [Cmpd 522]: the EC50 was below 10 µM. As to `Cc1nc(N2CCC3(CCN(c4cnc5cnn(CC(F)F)c5n4)C3=O)C2)cc(C(F)(F)F)n1` (stereo not drawn) [Cmpd 523], the concentration giving a half-maximal response (EC50) was below 10 µM.

As to `Cc1nc(N2CC3(CCN(c4cnc5cnn(CC(F)F)c5n4)C3=O)C2)cc(C(F)(F)F)n1` [Cmpd 524], the EC50 is below 10 µM. With `Cc1nc(N2CC3(CC(=O)N(c4cnc5cnn(CC(F)F)c5n4)C3)C2)cc(C(F)(F)F)n1` [Cmpd 525] the figure was below 10 µM; with `FC(F)Cn1ncc2ncc(N3CCC4(CC3)CN(c3cnc(C(F)(F)F)nc3)C4)nc21` [Cmpd 526], below 10 µM; with `Cc1cc(N2CC3(CCN(c4cnc5cnn(CC(F)F)c5n4)CC3)C2)nc(C(F)(F)F)n1` [Cmpd 527], below 10 µM. For `Cc1cc(N2CCC3(CCN(c4cnc5cnn(CC(F)F)c5n4)CC3)C2)nc(C(F)(F)F)n1` [Cmpd 528], the EC50 is below 10 µM.

In turn, `Cc1cc(N2CC3(CCN(c4cnc5cnn(CC(F)F)c5n4)CC3)CC2=O)nc(C(F)(F)F)n1` [Cmpd 529] showed a concentration giving a half-maximal response (EC50) below 10 µM. Molecule `Cc1nn(CC(F)F)c2nc(N3CCC4(CCN(c5cnc(C(F)(F)F)nc5)C4)C3)cnc12` (stereo not drawn) [Cmpd 530] yielded an EC50 below 10 µM. `FC(F)(F)Cn1ncc2ncc(N3CCC4(CCN(c5cnc(C(F)(F)F)nc5)C4)C3)nc21` (stereo not drawn) [Cmpd 531] displayed an EC50 below 10 µM.

As for `FC(F)(F)c1ncc(N2CCC3(CCN(c4cncc(-c5nncs5)n4)C3)C2)cn1` (stereo not drawn) [Cmpd 532], the EC50 lay in the range of 10 to 50 µM. `FC(F)(F)c1ncc(N2CCC3(CCN(c4cnc5cnn(C6COC6)c5n4)C3)C2)cn1` (stereo not drawn) [Cmpd 533]: the EC50 was below 10 µM.

The molecule `Cc1nn(C2COC2)c2nc(N3CCC4(CCN(c5cnc(C(F)(F)F)nc5)C4)C3)cnc12` (stereo not drawn) [Cmpd 534] returned an EC50 below 10 µM. `FC(F)(F)c1ncc(N2CCC3(CCN(c4ncc5cnn(C6COC6)c5n4)C3)C2)cn1` (stereo not drawn) [Cmpd 535]: the EC50 was below 10 µM. Take `Cc1nn(C2COC2)c2nc(N3CCC4(CCN(c5cnc(C(F)(F)F)nc5)C4)C3)ncc12` (stereo not drawn) [Cmpd 536]: the EC50 is below 10 µM.

In turn, `Cc1nc(N2CCC3(CCN(c4cnc5c(C)nn(CC(F)F)c5n4)C3)C2)cc(C(F)(F)F)n1` (stereo not drawn) [Cmpd 537] yielded an EC50 above 100 µM. To `Cc1nc(N2CCC3(CCN(c4cnc5cnn(CC(F)(F)F)c5n4)C3)C2)cc(C(F)(F)F)n1` (stereo not drawn) [Cmpd 538] belongs 10 to 50 µM; to `Cc1nc(N2CCC3(CCN(c4cncc(-c5nncs5)n4)C3)C2)cc(C(F)(F)F)n1` (stereo not drawn) [Cmpd 539], 10 to 50 µM; to `Cc1nc(N2CCC3(CCN(c4ncc5cnn(CC(F)F)c5n4)C3)C2)cc(C(F)(F)F)n1` (stereo not drawn) [Cmpd 540], 10 to 50 µM.

Molecule `Cc1nc(N2CCC3(CCN(c4ncc5c(C)nn(CC(F)F)c5n4)C3)C2)cc(C(F)(F)F)n1` (stereo not drawn) [Cmpd 541] showed a concentration giving a half-maximal response (EC50) below 10 µM. `Cc1nc(N2CCC3(CCN(c4cnc5cnn(C6COC6)c5n4)C3)C2)cc(C(F)(F)F)n1` (stereo not drawn) [Cmpd 542] came in with an EC50 below 10 µM. With `Cc1nc(N2CCC3(CCN(c4cnc5c(C)nn(C6COC6)c5n4)C3)C2)cc(C(F)(F)F)n1` (stereo not drawn) [Cmpd 543], the EC50 lay within 10 to 50 µM. With `Cc1nc(N2CCC3(CCN(c4ncc5c(C)nn(C6COC6)c5n4)C3)C2)cc(C(F)(F)F)n1` (stereo not drawn) [Cmpd 544], the EC50 is 10 to 50 µM. `Cc1nc(N2CCC3(CCN(c4ncc5cnn(C6COC6)c5n4)C3)C2)cc(C(F)(F)F)n1` (stereo not drawn) [Cmpd 545] displayed an EC50 above 100 µM. With `FC(F)Cn1ncc2cnc(N3CCC4(CCN(c5cnc(C(F)(F)F)nc5)C4)C3)nc21` (stereo not drawn) [Cmpd 546] the figure was 10 to 50 µM.
